Series [1] relates to α2-aderenoceptor. Conditions: selective α2-adrenoceptor agonist; cited from earlier work.
The conditions of series [2]: humans, cited from earlier work.
Series [3] can be described thus: clinical. The following applies: human, in vivo. The text has this:
Dexmedetomidine plasma concentration-time data from clinical study # REC-10-006 were used in predicting the steady-state concentration-time profiles resulting from once-daily (QD) and twice-daily (BID) topical application of a 0.25, 0.5, and 1-gram dose. The data from the following 3 subjects were used: 1001, 1004, and 1005. The three subjects participated in the following treatment arms: Treatment A (0.25-gram dose), Treatment C (0.5-gram dose), and Treatment E (1.0-gram dose). Clinical study # REC-10-006 was a single ascending-dose study with multiple treatment arms (Treatments A, B, C, D and E). Plasma samples for drug analysis were taken at pre-dose (0 hour) and at the following specified times after dosing: 0.5, 1, 1.5, 2, 3, 4, 6, 8, 10, 12, 18, 24, 30, 36, and 48 hours. The lower limit of quantification of the bioanalytical assay was 0.02 ng/mL.
All pharmacokinetic parameters were analyzed using compartmental analysis. Dexmedetomidine plasma concentration-time data from Period 1 (REC-10-006) were used in predicting the steady-state concentration-time profiles resulting from once-daily (QD) and twice-daily (BID) topical application of 0.25-, 0.5- and 1.0-gram doses. The data used were from three subjects (Identifiers 1001, 1004, and 1005) who participated in treatment arms A (0.25-gram dose), C (0.5-gram dose), and E (1.0-gram dose). Blood samples for drug analysis were taken at pre-dose and at the following specified times after dosing: 0.25, 0.5, 0.75, 1, 1.5, 2, 2.5, 3, 4, 5, 6, 7, 8, 12, 24, 48, and 72 hours. […] Once the PK parameters were calculated and the single-dose concentrations were generated, the data were imported into WinNonlin™, Version 5.2 (WinNonlin™ Copyright ©2008, Pharsight Corporation), a nonparametric superposition was carried out to predicted the steady-state plasma concentration-time profiles resulting from QD and BID dosing.
As stated previously, the PK parameters were calculated using nonlinear-mixed-effect model using the software MonoLix 3.1. […]

The conditions of series [4]: human subjects, buccal administration; cited from earlier work.

Where two headings read alike, the source gives them in different places.

For the compound `Cc1cccc([C@H](C)c2cnc[nH]2)c1C` [dexmedetomidine, 5-[(1S)-1-(2,3-dimethylphenyl)ethyl]-1H-imidazole], in series [1], the “selectivity relative to that of clonidine” value is “approximately 10 fold”. The “time to maximum concentration in blood” value in series [2] (i.m. administration) was 1.6 to 1.7 h. Further, the “time to maximum concentration in blood” value in series [2] (transdermal administration) is 6 h. For the same compound, in series [3], the “period of absorption at a constant rate” value is around 20 h and the “portion of the plasma concentrations below the quantifiable level of 0.02 ng/mL” value is given as 67%. In series [3] (topical or ocular), this compound had a half-life of around 15 h. The “time of maximum concentration” value in series [4] is “approximately 1.5 h”.

The record behind these values is US20130072532A1, “TOPICAL TRANSDERMAL DEXMEDETOMIDINE COMPOSITIONS AND METHODS OF USE THEREOF” (priority 2010, published 2013).
